# From patent US9891239B2, “Modulators of pharmacokinetic properties of therapeutics” (Gilead Sciences, Inc., priority 2007, dated 2018)
# System: wild-type HIV-1 strain IIIB
# Experiment: Anti-HIV-1 cell culture assay (EC50), XTT readout of cytopathic effect in MT2 cells
# Assay type: cell-based
# Settings: Human immunodeficiency virus 1, IIIB, MT2, 120 h, read-out: protease inhibition activity represented by HIV EC50
# Protocol: The assay is based on quantification of the HIV-1-associated cytopathic effect by a […] detection of the viability of virus-infected cells in the presence or absence of tested inhibitors. HIV-1-induced cell death was determined using a metabolic substrate 2,3-bis(2-methoxy-4-nitro-5-sulfophenyl)-2H-tetrazolium-5-carboxanilide (XTT) which is converted only by intact cells into a product with specific absorption characteristics as described by Weislow O S, Kiser R, Fine D L, Bader J, Shoemaker R H and Boyd M R, J. Natl. Cancer Inst. 81, 577 (1989) (herein incorporated by reference in its entirety for all purposes). […]
# To determine the antiviral activity of the tested inhibitors, a substrate XTT solution (6 mL per assay plate) at a concentration of 2 mg/mL in a phosphate-buffered saline pH 7.4 was heated in water-bath for 5 min at 55° C. before 50 μl of N-methylphenazonium methasulfate (5 μg/mL) was added per 6 mL of XTT solution. […] Viability, as determined by the amount of XTT metabolites produced, was quantified spectrophotometrically by the absorbance at 450 nm (with subtraction of the background absorbance at 650 nm). […]
smiles,measurement,value
CC(C)c1nc(CN(C)C(=O)N[C@@H](CCN2CCOCC2)C(=O)N[C@H](CC[C@H](Cc2ccccc2)NC(=O)OCc2cncs2)Cc2ccccc2)cs1 [Example S],EC50,> 30 µM
